Measurements: ChEMBL document CHEMBL1127625, “Modulation of the kynurenine pathway in search for new neuroprotective agents. Synthesis and preliminary evaluation of (m-nitrobenzoyl)alanine, a potent inhibitor of kynurenine-3-hydroxylase” (J Med Chem, 1994)
pIC50: −log10 of the molar value.

Key:
Kynureninase = target: T1, Kynureninase (Rattus norvegicus, UniProt P70712); test: Ability to inhibit kynureninase was determined in a competitive inhibition assay.
T1 sequence (P70712 whole entry): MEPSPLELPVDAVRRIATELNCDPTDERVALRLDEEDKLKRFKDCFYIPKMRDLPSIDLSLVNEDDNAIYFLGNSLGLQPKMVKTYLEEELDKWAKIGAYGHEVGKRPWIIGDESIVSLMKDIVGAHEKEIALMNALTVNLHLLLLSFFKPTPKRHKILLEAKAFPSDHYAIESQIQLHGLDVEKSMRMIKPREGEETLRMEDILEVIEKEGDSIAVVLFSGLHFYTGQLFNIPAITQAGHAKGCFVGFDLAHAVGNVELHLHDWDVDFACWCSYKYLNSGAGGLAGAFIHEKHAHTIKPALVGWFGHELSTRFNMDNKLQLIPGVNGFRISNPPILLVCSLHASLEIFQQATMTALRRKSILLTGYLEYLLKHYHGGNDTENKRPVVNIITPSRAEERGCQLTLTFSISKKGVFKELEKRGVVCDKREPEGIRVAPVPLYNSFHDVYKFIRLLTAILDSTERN

[1] = target: Kynurenine 3-monooxygenase (Rattus norvegicus) (UniProt O88867); test: Differences in inhibition of kynurenine-3-hydroxylase by m-NBA versus compound is determined
[2] = target: Kynurenine 3-monooxygenase (Rattus norvegicus, UniProt O88867); test: Ability to inhibit kynurenine-3-hydroxylase was determined in a competitive inhibition assay.
Mus musculus [3] = test: Sedative and anticonvulsant effects at dose 200 mg/kg, administered intraperitoneally; value expressed as death /tested =0/13; assay type: ADME, organism-based; design: dose 200 mg/kg, route intraperitoneal; details: in vivo, ip
Mus musculus [4] = test: Sedative and anticonvulsant effects at dose 400 mg/kg, administered intraperitoneally; value expressed as death /tested =2/6; assay type: organism-based; design: dose 400 mg/kg, route intraperitoneal; details: in vivo, ip
Mus musculus [5] = test: Sedative and anticonvulsant effects at dose 400 mg/kg, administered intraperitoneally; value expressed as clonic /tested =4/6; assay type: functional; details: route intraperitoneal
Mus musculus [6] = test: Sedative and anticonvulsant effects at dose 200 mg/kg, administered intraperitoneally; value expressed as clonic /tested =6/13; assay type: functional; details: route intraperitoneal
Mus musculus [7] = test: Sedative and anticonvulsant effects at dose 400 mg/kg, administered intraperitoneally; value expressed as tonic /tested =2/6; assay type: functional; details: route intraperitoneal
Mus musculus [8] = test: Sedative and anticonvulsant effects at dose 200 mg/kg, administered intraperitoneally; value expressed as tonic /tested =1/13; assay type: functional; details: route intraperitoneal
Rattus norvegicus [9] = test: Effect on kynurenic acid (KYNA) content in rat blood at dose 400 mg/kg administered intraperitoneally; assay type: functional; details: route intraperitoneal
Rattus norvegicus [10] = test: Effect on kynurenic acid (KYNA) content in rat brain at dose 400 mg/kg administered intraperitoneally; assay type: functional; details: route intraperitoneal
Rattus norvegicus [11] = test: Effect on kynurenic acid (KYNA) content in rat liver at dose 400 mg/kg administered intraperitoneally; assay type: functional; details: route intraperitoneal
Rattus norvegicus [12] = test: Effect on […] (KYN) content in rat blood at dose 400 mg/kg administered intraperitoneally; assay type: functional; details: route intraperitoneal
Rattus norvegicus [13] = test: Effect on […] (KYN) content in rat brain at dose 400 mg/kg administered intraperitoneally; assay type: functional; details: route intraperitoneal
Rattus norvegicus [14] = test: Effect on […] (KYN) content in rat liver at dose 400 mg/kg administered intraperitoneally; assay type: functional; details: route intraperitoneal

Sequence of Kynurenine 3-monooxygenase (O88867 whole entry): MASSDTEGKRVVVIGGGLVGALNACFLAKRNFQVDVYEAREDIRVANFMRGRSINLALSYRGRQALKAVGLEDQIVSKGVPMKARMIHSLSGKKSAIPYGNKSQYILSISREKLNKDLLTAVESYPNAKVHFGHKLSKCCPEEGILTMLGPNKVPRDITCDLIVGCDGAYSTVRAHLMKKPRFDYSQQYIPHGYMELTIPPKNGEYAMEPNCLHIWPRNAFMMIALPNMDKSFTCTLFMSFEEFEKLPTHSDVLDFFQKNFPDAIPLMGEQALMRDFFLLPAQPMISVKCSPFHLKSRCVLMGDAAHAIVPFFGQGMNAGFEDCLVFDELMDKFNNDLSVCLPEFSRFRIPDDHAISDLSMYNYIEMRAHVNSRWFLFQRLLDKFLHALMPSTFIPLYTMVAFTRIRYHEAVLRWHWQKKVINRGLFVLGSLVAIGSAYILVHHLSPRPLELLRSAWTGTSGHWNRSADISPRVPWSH
Sequence of Kynurenine 3-monooxygenase (Rattus norvegicus) (O88867 whole entry, looked up): as the sequence (O88867 whole entry) above

Compound: NC(CC(=O)c1ccccc1[N+](=O)[O-])C(=O)O (configuration not stated) [(ortho-nitrobenzoyl)alanine]
- pIC50 (Kynureninase): 4.00
- -Log IC50/IC50 [1]: 2.94
- pIC50 [2]: 2.70

Compound: NC(CC(=O)c1ccc([N+](=O)[O-])cc1)C(=O)O (configuration not stated)
- pIC50 (Kynureninase): 3.05
- -Log IC50/IC50 [1]: 2.52
- pIC50 [2]: 3.52

Compound: NC(CC(=O)c1cccnc1)C(=O)O (configuration not stated) [NICOTINOYLALANINENAL]
- pIC50 (Kynureninase): 3.10
- -Log IC50/IC50 [1]: 2.89
- pIC50 [2]: 3.05

Compound: NC(CC(=O)c1cccc([N+](=O)[O-])c1)C(=O)O (configuration not stated)
- pIC50 (Kynureninase): 4.00
- Death (Mus musculus [3]): 0
- Death (Mus musculus [4]): 2
- Clonic (Mus musculus [5]): 4
- Clonic (Mus musculus [6]): 6
- Tonic (Mus musculus [7]): 2
- Tonic (Mus musculus [8]): 1
- Effect (Rattus norvegicus [9]): 120 pmol/g
- Effect (Rattus norvegicus [10]): 150 pmol/g
- Effect (Rattus norvegicus [11]): 250 pmol/g
- Effect (Rattus norvegicus [12]): 16000 pmol/g
- Effect (Rattus norvegicus [13]): 4000 pmol/g
- Effect (Rattus norvegicus [14]): 4000 pmol/g
